A value given as a limit tells only on which side of the number the result lay.

The target in this assay is T1, human PAR-2 (hPAR-2) receptor (Homo sapiens, UniProt P55085).
T1 construct: expressed in HEK-293 cells in an endogenous manner; endogenous in cells; host or cells: HEK-293
T1 sequence (P55085 26-397): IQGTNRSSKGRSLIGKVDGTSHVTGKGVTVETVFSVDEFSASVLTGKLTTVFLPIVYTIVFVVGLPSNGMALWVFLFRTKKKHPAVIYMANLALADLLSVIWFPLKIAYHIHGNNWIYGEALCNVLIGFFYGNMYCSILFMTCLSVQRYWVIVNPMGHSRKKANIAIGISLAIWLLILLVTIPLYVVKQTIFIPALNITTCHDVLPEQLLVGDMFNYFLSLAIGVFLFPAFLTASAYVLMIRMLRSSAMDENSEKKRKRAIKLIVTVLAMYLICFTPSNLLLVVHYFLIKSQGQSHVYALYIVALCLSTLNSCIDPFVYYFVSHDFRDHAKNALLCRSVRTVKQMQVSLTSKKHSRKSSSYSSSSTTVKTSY
In words: In vitro human PAR-2 functional antagonist activity using calcium assays. The assay is classed as cell-based. As to conditions: hPAR-2 endogenously expressed in HEK-293 cells; stimulated by 2-Furoyl-LIGRLO-NH2 peptide; Fluo4AM intracellular calcium, FLIPR Tetra. Put shortly: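 Antagonism was measured as reduced calcium response to 2-Furoyl-LIGRLO-NH2 (dosed at its 80%-of-maximum concentration), recorded for 5 min. This followed a 10 min compound pre-incubation on Fluo4AM-loaded HEK-293 cells expressing native hPAR-2. Signals were normalised to buffer and agonist-alone controls.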
(In general: Calcium flux is commonly read through the fluorescence of an indicator in the cells.)
In the case of `CC1(C)CN(c2ccc(Cl)c(F)c2)c2ccc(C(=O)N3CCN(c4cncc(C(=O)O)c4)CC3(C)C)nc21` [Example 151, 5-(4-(1-(4-chloro-3-fluorophenyl)-3,3-dimethyl-2,3-dihydro-1H-pyrrolo[3,2-b]pyridine-5-carbonyl)-3,3-dimethylpiperazin-1-yl)nicotinic acid], the IC50 is under 500 nM.

With `CC1(C)CN(c2ccc(C(=O)N3CCN(c4cncc(C(=O)O)c4)CC3(C)C)c(F)c2)c2ccc(C(=O)N3CCN(c4cncc(C(=O)O)c4)CC3(C)C)nc21` [Example 152, 5-(4-(4-(5-(4-(5-carboxypyridin-3-yl)-2,2-dimethylpiperazine-1-carbonyl)-3,3-dimethyl-2,3-dihydro-1H-pyrrolo[3,2-b]pyridin-1-yl)-2-fluorobenzoyl)-3,3-dimethylpiperazin-1-yl)nicotinic acid], the IC50 was over 10000 nM.

As to `CC1CC2(C1)CN(c1ccc(Cl)c(F)c1)c1ccc(C(=O)N3CCN(c4ccc(CC(=O)O)cn4)CC3(C)C)nc12` (centres unmarked) [Example 154, 2-(6-(4-(1′-(4-chloro-3-fluorophenyl)-3-methyl-1′,2′-dihydrospiro[cyclobutane-1,3′-pyrrolo[3,2-b]pyridine]-5′-carbonyl)-3,3-dimethylpiperazin-1-yl)pyridin-3-yl)acetic acid], the IC50 was under 500 nM.

In the case of `CC(C(=O)O)c1ccc(N2CCN(C(=O)c3ccc4c(n3)C(C)(C)CN4c3ccc(Cl)c(F)c3)C(C)(C)C2)nc1` (centres unmarked) [Example 160, 2-(6-(4-(1-(4-chloro-3-fluorophenyl)-3,3-dimethyl-2,3-dihydro-1H-pyrrolo[3,2-b]pyridine-5-carbonyl)-3,3-dimethylpiperazin-1-yl)pyridin-3-yl)propanoic acid], the IC50 was under 500 nM.

As for `Cc1cc(N2CCN(C(=O)c3ccc4c(n3)C(C)(C)CN4C3CCC(C(N)=O)CC3)C(C)(C)C2)nc(C)c1C(=O)O` (centres unmarked) [Example 162, 6-(4-(1-(4-carbamoylcyclohexyl)-3,3-dimethyl-2,3-dihydro-1H-pyrrolo[3,2-b]pyridine-5-carbonyl)-3,3-dimethylpiperazin-1-yl)-2,4-dimethylnicotinic acid], the IC50 lay in the range of 500 to 10000 nM.

In the case of `CC1(C)CN(C2CCC(F)(F)CC2)c2ccc(C(=O)N3CCN(c4ccc(CC(=O)O)cn4)CC3(C)C)nc21` [Example 164, 2-(6-(4-(1-(4,4-difluorocyclohexyl)-3,3-dimethyl-2,3-dihydro-1H-pyrrolo[3,2-b]pyridine-5-carbonyl)-3,3-dimethylpiperazin-1-yl)pyridin-3-yl)acetic acid], the 50% inhibitory concentration (IC50) is under 500 nM.

On to `Cc1cc(C)nc(N2CCN(C(=O)c3ccc4c(n3)C(C)(C)CN4C3CCC(C#N)CC3)C(C)(C)C2)c1` (centres unmarked) [Example 165, 4-(5-(4-(4,6-dimethylpyridin-2-yl)-2,2-dimethylpiperazine-1-carbonyl)-3,3-dimethyl-2,3-dihydro-1H-pyrrolo[3,2-b]pyridin-1-yl)cyclohexane-1-carbonitrile], for which the IC50 lay within 500 to 10000 nM.

In the case of `CC1(C)CN(C2CCCC2)c2ccc(C(=O)N3CCN(c4ccc(CC(=O)O)cn4)CC3(C)C)nc21` [Example 167, 2-(6-(4-(1-cyclopentyl-3,3-dimethyl-2,3-dihydro-1H-pyrrolo[3,2-b]pyridine-5-carbonyl)-3,3-dimethylpiperazin-1-yl)pyridin-3-yl)acetic acid], the IC50 lay in the range of 500 to 10000 nM.

For `CC1(C)CN(C2CCC(C#N)CC2)c2ccc(C(=O)N3CCN(c4ccc(CC(=O)O)cn4)CC3(C)C)nc21` (centres unmarked) [Example 169, 2-(6-(4-(1-(4-cyanocyclohexyl)-3,3-dimethyl-2,3-dihydro-1H-pyrrolo[3,2-b]pyridine-5-carbonyl)-3,3-dimethylpiperazin-1-yl)pyridin-3-yl)acetic acid], the IC50 was 500 to 10000 nM.

In the case of `CC1(C)CN(c2ccc(F)c(F)c2)c2ncc(C(=O)N3CCN(c4ccc(CC(=O)O)cn4)CC3(C)C)nc21` [Example 171, 2-(6-(4-(5-(3,4-difluorophenyl)-7,7-dimethyl-6,7-dihydro-5H-pyrrolo[2,3-b]pyrazine-2-carbonyl)-3,3-dimethylpiperazin-1-yl)pyridin-3-yl)acetic acid], the IC50 was under 500 nM.

As to `CC1(C)CN(c2ccc(Cl)c(F)c2)c2ncc(C(=O)N3CCN(c4ccc(CC(=O)O)cn4)CC3(C)C)nc21` [Example 173, 2-(6-(4-(5-(4-chloro-3-fluorophenyl)-7,7-dimethyl-6,7-dihydro-5H-pyrrolo[2,3-b]pyrazine-2-carbonyl)-3,3-dimethylpiperazin-1-yl)pyridin-3-yl)acetic acid], the half-inhibitory concentration (IC50) was under 500 nM.

For the compound `CC1(C)CN(c2ccc(Cl)c(F)c2)c2ccc(C(=O)N3CCN(c4ccc(C(C)(C)C(=O)O)cn4)CC3(C)C)nc21` [Example 175, 2-(6-(4-(1-(4-chloro-3-fluorophenyl)-3,3-dimethyl-2,3-dihydro-1H-pyrrolo[3,2-b]pyridine-5-carbonyl)-3,3-dimethylpiperazin-1-yl)pyridin-3-yl)-2-methylpropanoic acid], the IC50 was under 500 nM.

Take `CC1(C)CCN(c2ccc(Cl)c(F)c2)c2ccc(C(=O)N3CCN(c4ccc(CC(=O)O)cn4)CC3(C)C)nc21` [Example 177, 2-(6-(4-(5-(4-chloro-3-fluorophenyl)-8,8-dimethyl-5,6,7,8-tetrahydro-1,5-naphthyridine-2-carbonyl)-3,3-dimethylpiperazin-1-yl)pyridin-3-yl)acetic acid]: the IC50 is under 500 nM.

In the case of `CC1(C)CN(c2ccc(CC(=O)O)cn2)CCN1C(=O)c1cc2n(n1)C(C)(C)CCN2c1ccc(Cl)c(F)c1` [Example 179, 2-(6-(4-(4-(4-chloro-3-fluorophenyl)-7,7-dimethyl-4,5,6,7-tetrahydropyrazolo[1,5-a]pyrimidine-2-carbonyl)-3,3-dimethylpiperazin-1-yl)pyridin-3-yl)acetic acid], the IC50 was over 10000 nM.

As for `Cc1cc(N2CCN(C(=O)c3cnc4c(n3)C(C)(C)CN4c3ccc(F)c(F)c3)C(C)(C)C2)nc(C)c1C(=O)O` [Example 181, 6-(4-(5-(3,4-difluorophenyl)-7,7-dimethyl-6,7-dihydro-5H-pyrrolo[2,3-b]pyrazine-2-carbonyl)-3,3-dimethylpiperazin-1-yl)-2,4-dimethylnicotinic acid], the IC50 is under 500 nM.

For the compound `Cc1cc(N2CCN(C(=O)c3cnc4c(n3)C(C)(C)CN4C3CCCC3)C(C)(C)C2)nc(C)c1C(=O)O` [Example 183, 6-(4-(5-cyclopentyl-7,7-dimethyl-6,7-dihydro-5H-pyrrolo[2,3-b]pyrazine-2-carbonyl)-3,3-dimethylpiperazin-1-yl)-2,4-dimethylnicotinic acid], the IC50 is over 10000 nM.

Regarding `Cc1ccc(N2CC(C)(C)c3nc(C(=O)N4CCN(c5cc(C)c(C(=O)O)c(C)n5)CC4(C)C)cnc32)cc1F` [Example 185, 6-(4-(5-(3-fluoro-4-methylphenyl)-7,7-dimethyl-6,7-dihydro-5H-pyrrolo[2,3-b]pyrazine-2-carbonyl)-3,3-dimethylpiperazin-1-yl)-2,4-dimethylnicotinic acid], the half-maximal inhibitory concentration (IC50) was under 500 nM.

On to `Cc1cc(N2CCN(C(=O)c3cnc4c(n3)C(C)(C)CN4c3cc(F)c(Cl)c(F)c3)C(C)(C)C2)nc(C)c1C(=O)O` [Example 187, 6-(4-(5-(4-chloro-3,5-difluorophenyl)-7,7-dimethyl-6,7-dihydro-5H-pyrrolo[2,3-b]pyrazine-2-carbonyl)-3,3-dimethylpiperazin-1-yl)-2,4-dimethylnicotinic acid], for which the 50% inhibitory concentration (IC50) is under 500 nM.

`Cc1ccc(N2CC(C)(C)c3nc(C(=O)N4CCN(c5cc(C)c(C(=O)O)c(C)n5)CC4(C)C)cnc32)cc1Cl` [Example 189, 6-(4-(5-(3-chloro-4-methylphenyl)-7,7-dimethyl-6,7-dihydro-5H-pyrrolo[2,3-b]pyrazine-2-carbonyl)-3,3-dimethylpiperazin-1-yl)-2,4-dimethylnicotinic acid]: the IC50 is under 500 nM.

For `Cc1cc(N2CCN(C(=O)c3cnc4c(n3)C(C)(C)CN4c3ccc(F)c(Cl)c3)C(C)(C)C2)nc(C)c1C(=O)O` [Example 191, 6-(4-(5-(3-chloro-4-fluorophenyl)-7,7-dimethyl-6,7-dihydro-5H-pyrrolo[2,3-b]pyrazine-2-carbonyl)-3,3-dimethylpiperazin-1-yl)-2,4-dimethylnicotinic acid], the IC50 was under 500 nM.

Turning to `Cc1cc(N2CCN(C(=O)c3cnc4c(n3)C(C)(C)CN4c3ccc(C(F)(F)F)c(Cl)c3)C(C)(C)C2)nc(C)c1C(=O)O` [Example 193, 6-(4-(5-(3-chloro-4-(trifluoromethyl)phenyl)-7,7-dimethyl-6,7-dihydro-5H-pyrrolo[2,3-b]pyrazine-2-carbonyl)-3,3-dimethylpiperazin-1-yl)-2,4-dimethylnicotinic acid], the IC50 was under 500 nM.

Consider `CC1(C)CN(c2ccc(CC(=O)O)cn2)CCN1C(=O)c1cc2n(n1)C(C)(C)CN(c1ccc(Cl)c(F)c1)C2` [Example 195, 2-(6-(4-(5-(4-chloro-3-fluorophenyl)-7,7-dimethyl-4,5,6,7-tetrahydropyrazolo[1,5-a]pyrazine-2-carbonyl)-3,3-dimethylpiperazin-1-yl)pyridin-3-yl)acetic acid], for which the IC50 was in the range of 500 to 10000 nM.

With `CC(C)CN1CC(C)(Cc2ccc(Cl)c(F)c2)c2ccc(C(=O)N3CCN(c4ccc(CC(=O)O)cn4)CC3(C)C)nc21` (centres unmarked) [Example 197, 2-(6-(4-(3-(4-chloro-3-fluorobenzyl)-1-isobutyl-3-methyl-2,3-dihydro-1H-pyrrolo[2,3-b]pyridine-6-carbonyl)-3,3-dimethylpiperazin-1-yl)pyridin-3-yl)acetic acid], the IC50 was over 10000 nM.

For orientation: IC50 means the concentration that gives 50% inhibition.
